According to ChEMBL document CHEMBL3232732, “A,D-seco-limonoids from the stems of Clausena emarginata” (J Nat Prod, 2014):
Values belong to the compound of their own block, whether it stands above or below them. Activity calls are given as the source filed them. No cut-off for these calls is given here.

What was measured:
Format in all cases: functional, cell-based
BV-2 = assay: Inhibition of LPS-induced NO production in mouse BV2 cells compound pre-treated for 1 hr before LPS addition measured after 24 hrs by Griess assay
HCT-116 = assay: Cytotoxicity against human HCT116 cells after 96 hrs by MTT assay; settings: HCT-116, 96 h
HepG2 = assay: Cytotoxicity against human HepG2 cells after 96 hrs by MTT assay; settings: HepG2, 96 h
[1] = Cytotoxicity against human BGC823 cells after 96 hrs by MTT assay; settings: BGC-823, 96 h
NCI-H1650 = assay: Cytotoxicity against human NCI-H1650 cells after 96 hrs by MTT assay; settings: NCI-H1650, 96 h
SK-OV-3 = assay: Cytotoxicity against human SKOV3 cells after 96 hrs by MTT assay; settings: SK-OV-3, 96 h

Compound: CC(=O)O[C@@H](CC(=O)O)[C@]1(C)[C@H]2[C@@H](O)C[C@@]3(C)[C@H](C4=CC(O)OC4=O)OC(=O)[C@H]4O[C@]43[C@]2(C)C(=O)C[C@H]1C(C)(C)O (relative stereo)
inhibition (BV-2): inactive
IC50 (HCT-116): > 10 µM
IC50 (HepG2): > 10 µM
IC50 [1]: > 10 µM
IC50 (NCI-H1650): > 10 µM
IC50 (SK-OV-3): > 10 µM

Compound: CC(=O)O[C@H]1CC(=O)OC(C)(C)[C@@H]2CC(=O)[C@]3(C)[C@H]([C@@H](O)C[C@@]4(C)[C@H](C5=CC(O)OC5=O)OC(=O)[C@H]5O[C@]543)[C@@]12C (stereo partly specified)
inhibition (BV-2): inactive
IC50 (HCT-116): > 10 µM
IC50 (HepG2): > 10 µM
IC50 [1]: > 10 µM
IC50 (NCI-H1650): > 10 µM
IC50 (SK-OV-3): > 10 µM

Compound: CC(=O)O[C@H]1CC(=O)OC(C)(C)[C@@H]2CC(=O)[C@]3(C)[C@H]([C@@H](O)C[C@@]4(C)[C@H](c5ccoc5)OC(=O)[C@H]5O[C@]543)[C@@]12C
inhibition (BV-2): inactive
IC50 (HCT-116): > 10 µM
IC50 (HepG2): > 10 µM
IC50 [1]: > 10 µM
IC50 (NCI-H1650): > 10 µM
IC50 (SK-OV-3): > 10 µM

IC50 (BV-2): 0.5 µM
Compound: COc1cc(/C=C/C(=O)CC(=O)/C=C/c2ccc(O)c(OC)c2)ccc1O [CURCUMIN]

IC50 (BV-2): 5.3 µM
Compound: CC1(C)OC(=O)C=C[C@]2(C)[C@H]3[C@@H](O)C[C@@]4(C)[C@H](c5ccoc5)OC(=O)[C@H]5O[C@]54[C@]3(C)C(=O)C[C@@H]12
IC50 (HCT-116): > 10 µM
IC50 (HepG2): > 10 µM
IC50 [1]: > 10 µM
IC50 (NCI-H1650): > 10 µM
IC50 (SK-OV-3): > 10 µM

IC50 (BV-2): 6.7 µM
Compound: COC(=O)C[C@@H]1OC(C)(C)[C@@H]2CC(=O)[C@]3(C)[C@H]([C@@H](O)C[C@@]4(C)[C@H](c5ccoc5)OC(=O)[C@H]5O[C@]543)[C@@]12C
IC50 (HCT-116): > 10 µM
IC50 (HepG2): > 10 µM
IC50 [1]: > 10 µM
IC50 (NCI-H1650): > 10 µM
IC50 (SK-OV-3): > 10 µM

IC50 (BV-2): 5.1 µM
Compound: CCOC(=O)C[C@H](OC(C)=O)[C@]1(C)[C@H]2[C@@H](O)C[C@@]3(C)[C@H](c4ccoc4)OC(=O)[C@H]4O[C@]43[C@]2(C)C(=O)C[C@H]1C(C)(C)O
IC50 (HCT-116): > 10 µM
IC50 (HepG2): > 10 µM
IC50 [1]: > 10 µM
IC50 (NCI-H1650): > 10 µM
IC50 (SK-OV-3): > 10 µM

IC50 (BV-2): 8.8 µM
Compound: COC(=O)C[C@H](OC(C)=O)[C@]1(C)[C@H]2[C@@H](O)C[C@@]3(C)[C@H](c4ccoc4)OC(=O)[C@H]4O[C@]43[C@]2(C)C(=O)C[C@H]1C(C)(C)O
IC50 (HCT-116): > 10 µM
IC50 (HepG2): > 10 µM
IC50 [1]: > 10 µM
IC50 (NCI-H1650): > 10 µM
IC50 (SK-OV-3): > 10 µM

Compound: CC(C)(O)[C@@H]1CC(=O)[C@]2(C)[C@@H]3[C@H](C[C@@]4(C)[C@H](c5ccoc5)OC(=O)[C@H]5O[C@]542)OC(=O)C=C[C@]31C
inhibition (BV-2): inactive
IC50 (HCT-116): > 10 µM
IC50 (HepG2): > 10 µM
IC50 [1]: > 10 µM
IC50 (NCI-H1650): > 10 µM
IC50 (SK-OV-3): > 10 µM

Compound: CC(=O)O[C@H]1CC(=O)OC(C)(C)[C@@H]2CC(=O)[C@]3(C)[C@H]([C@@H](O)C[C@@]4(C)[C@H](C5=CC(=O)OC5O)OC(=O)[C@H]5O[C@]543)[C@@]12C (relative stereo)
inhibition (BV-2): inactive
IC50 (HCT-116): > 10 µM
IC50 (HepG2): > 10 µM
IC50 [1]: > 10 µM
IC50 (NCI-H1650): > 10 µM
IC50 (SK-OV-3): > 10 µM

IC50 (BV-2): 7 µM
Compound: COC(=O)C[C@H](O)[C@]1(C)[C@H]2[C@@H](O)C[C@@]3(C)[C@H](c4ccoc4)OC(=O)[C@H]4O[C@]43[C@]2(C)C(=O)C[C@H]1C(C)(C)O
IC50 (HCT-116): > 10 µM
IC50 (HepG2): > 10 µM
IC50 [1]: > 10 µM
IC50 (NCI-H1650): > 10 µM
IC50 (SK-OV-3): > 10 µM

Compound: COC(=O)C[C@H]1OC(C)(C)[C@@H]2CC(=O)[C@]3(C)[C@H]([C@@H](O)C[C@@]4(C)[C@H](C5=CC(O)OC5=O)OC(=O)[C@H]5O[C@]543)[C@@]12C (relative stereo)
inhibition (BV-2): inactive
IC50 (HCT-116): > 10 µM
IC50 (HepG2): > 10 µM
IC50 [1]: > 10 µM
IC50 (NCI-H1650): > 10 µM
IC50 (SK-OV-3): > 10 µM

Compound: CC1(C)OC(=O)C=C[C@]2(C)[C@H]3[C@@H](O)C[C@@]4(C)[C@H](C5=CC(O)OC5=O)OC(=O)[C@H]5O[C@]54[C@]3(C)C(=O)C[C@@H]12 (stereo partly specified)
inhibition (BV-2): inactive
IC50 (HCT-116): > 10 µM
IC50 (HepG2): > 10 µM
IC50 [1]: > 10 µM
IC50 (NCI-H1650): > 10 µM
IC50 (SK-OV-3): > 10 µM

Compound: CC1(C)OC(=O)C=C[C@]2(C)[C@H]3[C@@H](O)C[C@@]4(C)[C@@H](C5=CC(=O)OC5O)OC(=O)[C@H]5O[C@]54[C@]3(C)C(=O)C[C@@H]12 (stereo partly specified)
inhibition (BV-2): inactive
IC50 (HCT-116): > 10 µM
IC50 (HepG2): > 10 µM
IC50 [1]: > 10 µM
IC50 (NCI-H1650): > 10 µM
IC50 (SK-OV-3): > 10 µM

IC50 (BV-2): 10 µM
Compound: COC(=O)C[C@H]1OC(C)(C)[C@@H]2CC(=O)[C@]3(C)[C@H]([C@@H](O)C[C@@]4(C)[C@H](c5ccoc5)OC(=O)[C@H]5O[C@]543)[C@@]12C
IC50 (HCT-116): > 10 µM
IC50 (HepG2): > 10 µM
IC50 [1]: > 10 µM
IC50 (NCI-H1650): > 10 µM
IC50 (SK-OV-3): > 10 µM

Compound: COC(=O)C[C@H]1OC(C)(C)[C@@H]2CC(=O)[C@]3(C)[C@H]([C@@H](O)C[C@@]4(C)[C@H](C5=CC(=O)OC5O)OC(=O)[C@H]5O[C@]543)[C@@]12C (stereo partly specified)
inhibition (BV-2): inactive
IC50 (HCT-116): > 10 µM
IC50 (HepG2): > 10 µM
IC50 [1]: > 10 µM
IC50 (NCI-H1650): > 10 µM
IC50 (SK-OV-3): > 10 µM
